What was measured:
Magnaporthe grisea = format: cell-based; details: 100 ppm
eggs of Panonychus citri = test: Effect on hatching of eggs of Panonychus citri, leaf disc method; format: in vivo; details: 1 ppm
Method: (§1) • (1) Preparation of leaf discs containing eggs: 20 female adult mites of Tetranychus cinnabarinus were transferred onto leaf discs of Vicia faba with a diameter of 2.0 cm (with wetted filter paper at the bottom), then covered it with a lidded culture dish and cultivated under moisturizing conditions, the adult mites were removed within 36 hours and microscopic examination and counting were performed on leaf discs containing eggs. • (2) Investigation of egg population base: Before pesticide soaking, a microscopic examination was conducted on the egg basic number of each leaf disc, with 2 replicates set for each treatment. • (3) Pesticide soaking treatment: The leaf butterflies loaded with mite eggs were soaked in clear water and sulfite compounds for 10 seconds, respectively, then taken out and cultivated under moisturizing conditions. Each treatment should be repeated for no less than 3 times. • (4) Cultivation and observation: The […] were cultivated under normal conditions. Five days after insecticide delivery, the hatching status of mite eggs was investigated. • Note: The temperature and humidity conditions of the constant temperature and humidity incubator after the treatment should be controlled so as to avoid excessive temperature differences, which may cause generation and dripping of condensate water in the culture dish, resulting in abnormal death of eggs due to soaking in water; it is also necessary to ensure sufficient strong ambient light, without directing irradiating the leaves. • (5) Survey of Results: The experimental materials of each treatment group were regularly hydrated and moisturized, and the hatching of eggs was observed. On the 7th day after insecticide delivery, the number of hatched eggs for each treatment was recorded, and the survey of results was recorded in the original notebook. According to the experimental requirements and characteristics of agents, the survey time can be shortened or extended.
(§2) • 1) Surveying and recording the number of hatched eggs for each treatment. • 2) Photographing and recording whether there was any pesticide damage to the leaf discs of Vicia faba. • 3) Recording the developmental status of experimental mite eggs, behavior status of nymph mites, including abnormal phenomena such as delayed or stopped development of mite eggs, difficulty in breaking hull for nymph mites, or painful struggles after hatching, etc. • (6) Calculation method: Based on the survey data, the prevention and control effect of each treatment was calculated according to the following formula, and the calculation results were kept to two decimal places.
This test adopted the method in Test Example 1 of technical section, mainly used leaf disc method to explore the effect on hatching of eggs of Panonychus citri by compounds 1-(S,S), 1-(S,R), 1-(R,R), 1-(R,S), 1′-(S,S), 1′-(S,R), 1′-(R,R), 1′-(R,S), compound 1, compound 1′, S-10, R-10, S-10′, R-10′, compound 10, compound 10′, compound 19-(S,S), 19-(S,R), 19-(R,R), 19-(R,S), 19′-(S,S), 19′-(S,R), 19′-(R,R), 19′-(R,S), compound 19, and compound 19′. The concentration of all compounds was 1 ppm.

[1] = system: eggs of Spodoptera litura; test: Effect on hatching of eggs of Spodoptera litura, egg piece soaking; format: in vivo; details: 500 ppm
Method: • (1) Preparation of paper containing eggs: the egg mass was cut into small pieces, each containing about 60 eggs, soaked in a preformulated test agent for 10 minutes together with paper for egg raising (concentration of each compound of 500 ppm). After taken out, absorbent paper was used to absorb the excess solution adhered to the paper for egg raising and egg pieces. (2) Cultivation: Each egg piece was separately placed in a glass test tube (5.0 cm in height, 2.5 cm in diameter, the same below), which was sealed with plastic paper punctured with fine holes using insect needles and cultivated in an artificial climate chamber at a temperature of (24±1° C.), a relative humidity of (80±10) %, and a photoperiod of L:D=12:12. When the eggs developed until they were about to hatch, castor leaves with a diameter of about 3 cm were added for feeding the hatching larvae; • (3) Observation: the number of hatched and unhatched eggs per egg piece was checked and recorded, and the hatching rate of eggs was calculated according to the formula. Each treatment was repeated for 3 times. • (4) Survey of results: The experimental materials of each treatment group were regularly hydrated and moisturized, and the hatching of eggs was observed. On the 4th day after insecticide delivery, the number of hatched eggs for each treatment was recorded, and the survey of results was recorded in the original notebook. According to the experimental requirements and characteristics of agents, the survey time can be shortened or extended. • 1) Surveying and recording the number of hatched eggs for each treatment. • 2) Recording the developmental status of experimental eggs of Spodoptera litura, behavior status of nymphs, including abnormal phenomena such as delayed or stopped development of eggs of Spodoptera litura, etc. • (5) Calculation method: Based on the survey data, the prevention and control effect of each treatment was calculated according to the following formula, and the calculation results were kept to two decimal places. [formula] [formula]

[2] = system: eggs of Harmonia axyridis; test: Effect on hatching of eggs of Harmonia axyridis, egg card immersion; format: in vivo; details: 100 ppm
Excerpt: The eggs of Harmonia axyridis cards (with approximately 20 eggs per card) were purchased from Henan Jiyuan Baiyun Industry Co., Ltd. in Henan Province. The number of eggs on the egg cards was counted as the basic number before insecticide delivery, and 5 cards were used as one treatment, with 3 replicates per treatment. After immersing the egg cards in a 100 ppm insecticide solution for 30 seconds, they were taken out and air dried, then cultivated under moisturizing conditions, and the […] were cultivated at 27° C. 4 days after insecticide delivery, the hatching status of eggs of Harmonia axyridis was investigated, and the prevention and control effect was calculated according to the following formula. [formula] [formula]

eggs of Aleyrodidae = test: Effect on hatching of eggs of Aleyrodidae, leaf disc method; format: in vivo; details: 10 ppm
Method: as §1, §2
This test adopted the method in Test Example 1 of technical section, mainly used leaf disc method to explore the inhibitory effect on hatching of eggs of Aleyrodidae by compounds 1-(S,S), 1-(S,R), 1-(R,R), 1-(R,S), 1′-(S,S), 1′-(S,R), 1′-(R,R), 1′-(R,S), compound 1, compound 1′, S-10, R-10, S-10′, R-10′, compound 10, compound 10′, compound 19-(S,S), 19-(S,R), 19-(R,R), 19-(R,S), 19′-(S,S), 19′-(S,R), 19′-(R,R), 19′-(R,S), compound 19, and compound 19′. The concentration of all compounds was 10 ppm.

In the case of C[C@H](COS(=O)OCCF)Oc1ccc(Cl)cc1Cl (stereo partly drawn) [1-(R,R)], the “inhibitory rate against Magnaporthe grisea (in words)” value (Magnaporthe grisea) is reported as “strong inhibitory rate”, the “Average antifungal rate (%)” value (Magnaporthe grisea; 96-well plate, average of 3 replicates) is reported as 98.96% and the “Antifungal rate of Magnaporthe grisea (%), Replicate 1” value (Magnaporthe grisea; 96-well plate, replicate 1) is reported as 99.41%. The “Antifungal rate of Magnaporthe grisea (%), Replicate 2” value (Magnaporthe grisea; 96-well plate, replicate 2) was 99.12%, the “Antifungal rate of Magnaporthe grisea (%), Replicate 3” value (Magnaporthe grisea; 96-well plate, replicate 3) was 98.34% and the “inhibitory effect on the hatching of eggs of Panonychus citri (in words)” value (eggs of Panonychus citri) was “good inhibitory effects”. The “Hatching rate (%), Replicate 1” value (eggs of Panonychus citri; Panonychus citri eggs, 5 days after delivery, replicate 1, listed as 1-(R, R)) was 0.00%, the “Hatching rate (%), Replicate 2” value (eggs of Panonychus citri; Panonychus citri eggs, 5 days after delivery, replicate 2, listed as 1-(R, R)) was 0.00% and the “Hatching rate (%), Replicate 3” value (eggs of Panonychus citri; Panonychus citri eggs, 5 days after delivery, replicate 3, listed as 1-(R, R)) was 0.00%. For the same compound, the “Number of hatched larvae 5 days after insecticide delivery, Replicate 1” value (eggs of Panonychus citri; Panonychus citri eggs, leaf disc, replicate 1, listed as 1-(R, R)) was 0, the “Number of hatched larvae 5 days after insecticide delivery, Replicate 2” value (eggs of Panonychus citri; Panonychus citri eggs, leaf disc, replicate 2, listed as 1-(R, R)) was 0 and the “Number of hatched larvae 5 days after insecticide delivery, Replicate 3” value (eggs of Panonychus citri; Panonychus citri eggs, leaf disc, replicate 3, listed as 1-(R, R)) was 0. The “inhibitory activity on the hatching of eggs of Spodoptera litura (in words)” value [1] was “good inhibitory activities”, the “Hatching rate (%), Replicate 1” value ([1]; Spodoptera litura eggs, 4 days after delivery, replicate 1, listed as 1-(R, R)) was 22.39% and the “Hatching rate (%), Replicate 2” value ([1]; Spodoptera litura eggs, 4 days after delivery, replicate 2, listed as 1-(R, R)) was 21.05%. The “Hatching rate (%), Replicate 3” value ([1]; Spodoptera litura eggs, 4 days after delivery, replicate 3, listed as 1-(R, R)) was 23.73%, the “Number of unhatched larvae 4 days after insecticide delivery, Replicate 1” value ([1]; Spodoptera litura eggs, soaked 10 minutes, replicate 1, listed as 1-(R, R)) was 47 and the “Number of unhatched larvae 4 days after insecticide delivery, Replicate 2” value ([1]; Spodoptera litura eggs, soaked 10 minutes, replicate 2, listed as 1-(R, R)) was 45. For the same compound, the “Number of unhatched larvae 4 days after insecticide delivery, Replicate 3” value ([1]; Spodoptera litura eggs, soaked 10 minutes, replicate 3, listed as 1-(R, R)) was 45, the “inhibitory activity on the hatching of eggs of Harmonia axyridis (in words)” value [2] was “strong inhibitory activities” and the “Number of hatched larvae 4 days after insecticide delivery, Replicate 1” value ([2]; Harmonia axyridis egg cards, immersed 30 seconds, replicate 1, listed as 1-(R, R)) was 0. The “Number of hatched larvae 4 days after insecticide delivery, Replicate 2” value ([2]; Harmonia axyridis egg cards, immersed 30 seconds, replicate 2, listed as 1-(R, R)) was 0, the “Number of hatched larvae 4 days after insecticide delivery, Replicate 3” value ([2]; Harmonia axyridis egg cards, immersed 30 seconds, replicate 3, listed as 1-(R, R)) was 0 and the “Hatching rate (%), Replicate 1” value ([2]; Harmonia axyridis eggs, 4 days after delivery, replicate 1, listed as 1-(R, R)) was 0.00%. The “Hatching rate (%), Replicate 2” value ([2]; Harmonia axyridis eggs, 4 days after delivery, replicate 2, listed as 1-(R, R)) was 0.00%, the “Hatching rate (%), Replicate 3” value ([2]; Harmonia axyridis eggs, 4 days after delivery, replicate 3, listed as 1-(R, R)) was 0.00% and the “inhibitory activity on the hatching of eggs of Aleyrodidae (in words)” value (eggs of Aleyrodidae) was “strong inhibitory activities”. The “Hatching rate (%), Replicate 1” value (eggs of Aleyrodidae; Aleyrodidae eggs, 5 days after delivery, replicate 1, listed as 1-(R, R)) was 0.00%, the “Hatching rate (%), Replicate 2” value (eggs of Aleyrodidae; Aleyrodidae eggs, 5 days after delivery, replicate 2, listed as 1-(R, R)) was 0.00% and the “Hatching rate (%), Replicate 3” value (eggs of Aleyrodidae; Aleyrodidae eggs, 5 days after delivery, replicate 3, listed as 1-(R, R)) was 0.00%. For the same compound, the “Number of hatched larvae 5 days after insecticide delivery, Replicate 1” value (eggs of Aleyrodidae; Aleyrodidae eggs, leaf disc, replicate 1, listed as 1-(R, R)) was 0, the “Number of hatched larvae 5 days after insecticide delivery, Replicate 2” value (eggs of Aleyrodidae; Aleyrodidae eggs, leaf disc, replicate 2, listed as 1-(R, R)) was 0 and the “Number of hatched larvae 5 days after insecticide delivery, Replicate 3” value (eggs of Aleyrodidae; Aleyrodidae eggs, leaf disc, replicate 3, listed as 1-(R, R)) was 0.

Source: US20260184675A1, “CHIRAL ISOMERIC SULFITE COMPOUND AND APPLICATION THEREOF” (Chengdu Hanova BioSciences Co., Ltd, priority 2024, published 2026)
